# Reference: PubChem BioAssay (NCI)
#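 Step 1: Grow cells in 96-well plates. Step 2: Expose to compound for 48 hours at 5 concentrations. Step 3: Interpolate endpoints linearly; if unreached, use highest concentration. The concentration for 50% growth inhibition is given as GI50. TGI: total growth inhibition.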
# What was measured:
# Assay in all cases: NCI anticancer screen, dose series, 48 h
# [1] = system: HCT-15 colon
# [2] = system: NCI-H522 lung
# [3] = system: LOX IMVI melanoma
# [4] = system: SF-268 CNS
# [5] = system: PC-3 prostate
# [6] = system: MDA-MB-231 breast
# [7] = system: HOP-92 NSCLC
# [8] = system: NCI-H226 lung
# [9] = system: HT29 colon
# [10] = system: M14 melanoma
# [11] = system: MDA-MB-435
# [12] = system: SW-620 colon
# [13] = system: SN12C renal
# [14] = system: HCT-116 colon
# [15] = system: NCI-H23 lung
# [16] = system: HCC-2998 colon
# [17] = system: OVCAR-3 ovarian
# [18] = system: RXF 393 renal
# [19] = system: U251 CNS
# [20] = system: SK-MEL-5 melanoma
# [21] = system: UACC-257 melanoma
# [22] = system: TK-10 renal
# [23] = system: SF-295 CNS
# [24] = system: BT-549 breast
# [25] = system: HS 578T breast
# [26] = system: NCI-H460 lung
# [27] = system: T-47D breast
# [28] = system: SF-539 CNS
# [29] = system: 786-0 renal
# [30] = system: KM12 colon
# [31] = system: SNB-75 CNS
# [32] = system: SK-OV-3 ovarian
# [33] = system: SK-MEL-28 melanoma
# [34] = system: ACHN renal
# [35] = system: DU-145 prostate
# [36] = system: OVCAR-5 ovarian
# [37] = system: K-562 leukemia
# [38] = system: A549 NSCLC
# [39] = system: COLO 205 colon
# [40] = system: UACC-62 melanoma
# [41] = system: IGROV1 ovarian
# [42] = system: SNB-19 CNS
# [43] = system: NCI/ADR-RES ovarian
# [44] = system: UO-31 renal
# [45] = system: HOP-62 NSCLC
# [46] = system: OVCAR-8 ovarian
# [47] = system: EKVX NSCLC
# [48] = system: MCF7 breast
# [49] = system: OVCAR-4 ovarian
# [50] = system: A498 renal
# [51] = system: SK-MEL-2 melanoma
# [52] = system: SR leukemia
# [53] = system: HL-60(TB) leukemia
# [54] = system: MOLT-4 leukemia
# [55] = system: RPMI-8226 leukemia
# [56] = system: CAKI-1 renal
# [57] = system: CCRF-CEM leukemia
# [58] = system: MALME-3M melanoma
structure (smiles),measurement,setting,value
O=C(NCc1ccco1)c1cccc(NC2=C(Cl)C(=O)N(Cc3ccccc3)C2=O)c1,GI50,[1],4.16 µM
same,TGI,[1],24 µM
same,GI50,[2],2.84 µM
same,TGI,[2],20.8 µM
same,GI50,[3],3.72 µM
same,TGI,[3],> 100 µM
same,GI50,[4],> 100 µM
same,TGI,[4],> 100 µM
same,GI50,[5],5.11 µM
same,TGI,[5],19.6 µM
same,GI50,[6],17.3 µM
same,TGI,[6],> 100 µM
same,GI50,[7],7.91 µM
same,TGI,[7],33 µM
same,GI50,[8],12.7 µM
same,TGI,[8],62.7 µM
same,GI50,[9],18.4 µM
same,TGI,[9],> 100 µM
same,GI50,[10],11.7 µM
same,TGI,[10],24.6 µM
same,GI50,[11],2.33 µM
same,TGI,[11],7.39 µM
same,GI50,[12],11.5 µM
same,TGI,[12],> 100 µM
same,GI50,[13],22.1 µM
same,TGI,[13],> 100 µM
same,GI50,[14],3.86 µM
same,TGI,[14],15.1 µM
same,GI50,[15],14.7 µM
same,TGI,[15],33.3 µM
same,GI50,[16],10.8 µM
same,TGI,[16],25.6 µM
same,GI50,[17],2.44 µM
same,TGI,[17],7.71 µM
same,GI50,[18],4.22 µM
same,TGI,[18],26.2 µM
same,GI50,[19],11.5 µM
same,TGI,[19],60.5 µM
same,GI50,[20],5.26 µM
same,TGI,[20],23.3 µM
same,GI50,[21],3.86 µM
same,TGI,[21],26.5 µM
same,GI50,[22],3.54 µM
same,TGI,[22],9.18 µM
same,GI50,[23],1.81 µM
same,TGI,[23],9.4 µM
same,GI50,[24],7.29 µM
same,TGI,[24],30.7 µM
same,GI50,[25],15.4 µM
same,TGI,[25],> 100 µM
same,GI50,[26],92.3 µM
same,TGI,[26],> 100 µM
same,GI50,[27],23.1 µM
same,TGI,[27],> 100 µM
same,GI50,[28],3.53 µM
same,TGI,[28],15 µM
same,GI50,[29],3.94 µM
same,TGI,[29],16.3 µM
same,GI50,[30],6.49 µM
same,TGI,[30],24.5 µM
same,GI50,[31],14.1 µM
same,TGI,[31],87.2 µM
same,GI50,[32],45.8 µM
same,TGI,[32],> 100 µM
same,GI50,[33],16.4 µM
same,TGI,[33],46.6 µM
same,GI50,[34],9.18 µM
same,TGI,[34],42.3 µM
same,GI50,[35],5.3 µM
same,TGI,[35],24.7 µM
same,GI50,[36],22.5 µM
same,TGI,[36],63.9 µM
same,GI50,[37],5.24 µM
same,TGI,[37],> 100 µM
same,GI50,[38],19.9 µM
same,TGI,[38],> 100 µM
same,GI50,[39],16.2 µM
same,TGI,[39],49.9 µM
same,GI50,[40],12.6 µM
same,TGI,[40],33.3 µM
same,GI50,[41],2.44 µM
same,TGI,[41],11 µM
same,GI50,[42],23.2 µM
same,TGI,[42],> 100 µM
same,GI50,[43],6.53 µM
same,TGI,[43],34.3 µM
same,GI50,[44],3.24 µM
same,TGI,[44],18.6 µM
same,GI50,[45],13.1 µM
same,TGI,[45],28.5 µM
same,GI50,[46],8.57 µM
same,TGI,[46],> 100 µM
same,GI50,[47],34.8 µM
same,TGI,[47],> 100 µM
same,GI50,[48],11.5 µM
same,TGI,[48],> 100 µM
same,GI50,[49],6.74 µM
same,TGI,[49],64.3 µM
same,GI50,[50],17.2 µM
same,TGI,[50],50.8 µM
same,GI50,[51],3.3 µM
same,TGI,[51],20.7 µM
same,GI50,[52],2.94 µM
same,TGI,[52],19.9 µM
same,GI50,[53],5.52 µM
same,TGI,[53],22.3 µM
same,GI50,[54],5.19 µM
same,TGI,[54],> 100 µM
same,GI50,[55],1.06 µM
same,TGI,[55],3.29 µM
same,GI50,[56],0.232 µM
same,TGI,[56],1.45 µM
CCN1C[C@]2(COC)[C@H](O)C[C@H](OC)[C@]34C1[C@H]([C@H](OC)[C@H]23)[C@]1(OC(C)=O)[C@H]2[C@@H](OC(=O)c3ccccc3)[C@](O)(C[C@H]24)[C@@H](OC)[C@@H]1O,TGI,[1],> 100 µM
same,TGI,[2],> 100 µM
same,TGI,[3],> 100 µM
same,TGI,[4],> 100 µM
same,TGI,[5],> 100 µM
same,TGI,[6],> 100 µM
same,TGI,[7],> 100 µM
same,TGI,[8],> 100 µM
same,TGI,[9],> 100 µM
same,TGI,[10],> 100 µM
same,TGI,[11],> 100 µM
same,TGI,[12],> 100 µM
same,TGI,[13],> 100 µM
same,TGI,[14],> 100 µM
same,TGI,[15],> 100 µM
same,TGI,[16],> 100 µM
same,TGI,[19],> 100 µM
same,TGI,[20],> 100 µM
same,TGI,[21],> 100 µM
same,TGI,[22],> 100 µM
same,TGI,[23],> 100 µM
same,TGI,[24],> 100 µM
same,TGI,[25],> 100 µM
same,TGI,[57],> 100 µM
same,TGI,[26],> 100 µM
same,TGI,[27],> 100 µM
same,TGI,[28],> 100 µM
same,TGI,[29],> 100 µM
same,TGI,[30],> 100 µM
same,TGI,[31],> 100 µM
same,TGI,[32],> 100 µM
same,TGI,[33],> 100 µM
same,TGI,[34],> 100 µM
same,TGI,[35],> 100 µM
same,TGI,[36],> 100 µM
same,TGI,[37],> 100 µM
same,TGI,[38],> 100 µM
same,TGI,[39],> 100 µM
same,TGI,[40],> 100 µM
same,TGI,[41],> 100 µM
same,TGI,[42],> 100 µM
same,TGI,[43],> 100 µM
same,TGI,[44],> 100 µM
same,TGI,[58],> 100 µM
same,TGI,[46],> 100 µM
same,TGI,[47],> 100 µM
same,TGI,[48],> 100 µM
same,TGI,[49],> 100 µM
same,TGI,[50],> 100 µM
same,TGI,[51],> 100 µM
same,TGI,[52],> 100 µM
same,TGI,[53],> 100 µM
same,TGI,[56],> 100 µM
